Data on eleven compounds can be found in US4103028A, “Complement inhibitors” (American Cyanamid Company, priority 1977, dated 1978).

Molecules are shown by their SMILES. Where a name gives a salt, the structure may show the parent alone.

The subject of assay [1] is complement level in undiluted serum. As to the kind of experiment: Complement Level Reduction Test. Also on record: species or system guinea pig. Particulars: In vivo, dosed guinea pigs bled for serum; capillary tube method, compared to undosed control guinea pigs. The source says:
(§1) This test measures the ability of activated […] in the presence of C4 and appropriate dilutions of the test compound. An active inhibitor protects C2 from C1 and C4; (ii) Test, Code 035 (C3-C9 inhibitor) -- This test determines the ability of the late components of human complement (C3-C9) to lyse EAC 142 in the presence of appropriate dilutions of the test compound. An active inhibitor protects EAC 142 from lysis by human C3-C9; (iii) Test, Code 036 (C-Shunt inhibitor) -- In this test human erythrocytes rendered fragile are lysed in autologous serum via the shunt pathway activated by cobra venom factor in the presence of appropriate dilutions of the test compound. Inhibition of the shunt pathway results in failure of lysis; (iv) Forssman Vasculitis Test -- Here, the well known complement dependent lesion, Forssman vascultitis, is produced in guinea pigs by intradermal injection of rabbit anti-Forssman antiserum. The lesion is measured in terms of diameter, edema and hemorrhage and the extent to which a combined index of these is inhibited by prior intraperitoneal injection of the test compound at 200 mg/kg is then reported, unless otherwise stated; (v) Forssman Shock Test -- Lethal shock is produced in guinea pigs by an i.v. injection of anti-Forssman antiserum and the harmonic mean death time of treated guinea pigs is compared with that of simultaneous controls; (vi) Complement Level Reduction Test -- In this test, the above dosed quinea pigs, or others, are bled for serum and the complement level is determined in undiluted serum by the capillary tube method of U.S. Pat. No. 3,876,376 and compared to undosed control guinea pigs; and (vii) Cap 50 Test -- Here, appropriate amounts of the test compound are added to a pool of guinea pig serum in vitro, after which the undiluted serum capillary tube assay referred to above is run. The concentration of compound inhibiting 50% is reported.

Assay [2] has as its target T1, C1 (Homo sapiens, UniProt P09871).
T1 sequence (P09871 16-437 limits assumed): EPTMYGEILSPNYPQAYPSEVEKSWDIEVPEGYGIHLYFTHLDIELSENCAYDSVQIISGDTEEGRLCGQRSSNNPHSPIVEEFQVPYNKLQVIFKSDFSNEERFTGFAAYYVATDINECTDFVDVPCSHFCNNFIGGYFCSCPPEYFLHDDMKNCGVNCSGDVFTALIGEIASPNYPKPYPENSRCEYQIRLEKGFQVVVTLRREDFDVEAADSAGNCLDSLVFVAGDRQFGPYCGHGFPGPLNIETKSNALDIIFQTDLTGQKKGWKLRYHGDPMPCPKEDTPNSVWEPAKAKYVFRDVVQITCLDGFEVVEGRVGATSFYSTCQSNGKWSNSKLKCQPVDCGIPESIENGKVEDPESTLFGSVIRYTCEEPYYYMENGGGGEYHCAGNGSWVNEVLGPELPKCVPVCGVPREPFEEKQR
T1 sequence (P09871 438-688 limits assumed): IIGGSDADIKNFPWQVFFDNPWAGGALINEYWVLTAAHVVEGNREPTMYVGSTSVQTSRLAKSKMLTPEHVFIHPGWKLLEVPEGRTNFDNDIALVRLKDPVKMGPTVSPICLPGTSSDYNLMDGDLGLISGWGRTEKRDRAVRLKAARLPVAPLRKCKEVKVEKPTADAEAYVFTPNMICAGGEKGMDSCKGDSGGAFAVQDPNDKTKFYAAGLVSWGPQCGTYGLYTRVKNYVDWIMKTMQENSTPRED
Nature of the assay: Test, Code 026 (C1 inhibitor), serial dilution assay. The assay is classed as biochemical. Particulars: In vitro; well number of a two-fold serial dilution assay, higher well number indicates higher activity; NEG = negative.
Description: as §1

The test system of assay [3] is shunt pathway. Nature of the assay: Test, Code 036 (C-Shunt inhibitor), lysis of fragile human erythrocytes in autologous serum, cobra venom factor. The class given is biochemical. Conditions: In vitro; well number of a two-fold serial dilution assay, higher well number indicates higher activity; NEG = negative.
Description: as §1

Assay [4] relates to Forssman vasculitis in guinea pigs. As to the kind of experiment: Forssman Vasculitis Test. Set-up: species or system guinea pig. Particulars: In vivo, inhibition of combined index of lesion diameter, edema and hemorrhage, prior intraperitoneal injection at 200 mg/kg unless otherwise stated.
Description: as §1

For assay [5], the system named is late components of human complement (C3-C9). As to the kind of experiment: Test, Code 035 (C3-C9 inhibitor), lysis of EAC 142. The class given is biochemical. Particulars: In vitro; well number of a two-fold serial dilution assay, higher well number indicates higher activity; NEG = negative.
Description: as §1

`O=C(Nc1cccc(C(=O)Nc2cc3c(O)cc(S(=O)(=O)O)cc3cc2S(=O)(=O)O)c1)Nc1cccc(C(=O)Nc2cc3c(O)cc(S(=O)(=O)O)cc3cc2S(=O)(=O)O)c1` [3,3'-[Ureylenebis (m-phenylenecarbonylimino)]bis[5-hydroxy-2,7-naphthalenedisulfonic acid]tetrasodium salt]: in assay [1], the “% Reduction Complement” value is -31%. The “026 (activity in wells)” value in assay [2] is reported as 5. In addition, the “036 (activity in wells)” value in assay [3] is 2. Also, the Forssman in assay [4] worked out at 35. The “035 (activity in wells)” value in assay [5] is 2.
Take `Cc1ccc(C(=O)Nc2cc(S(=O)(=O)O)cc3cc(S(=O)(=O)O)cc(O)c23)cc1N` [4-(3-Amino-p-toluamido)-5-hydroxy-2,7-naphthalenedisulfonic acid, disodium salt]: the “026 (activity in wells)” value in assay [2] was found to be 5. In addition, in assay [3], the “036 (activity in wells)” value is “NEG”. The “035 (activity in wells)” value in assay [5] was “NEG”.
For the compound `Cc1cc(C(=O)Nc2cc(S(=O)(=O)O)cc3cc(S(=O)(=O)O)cc(O)c23)ccc1N` [4-(4-Amino-m-toluamido)-5-hydroxy-2,7-naphthalenedisulfonic acid, disodium salt], the “% Reduction Complement” value in assay [1] is recorded as “+12%”. Moreover, in assay [2], the “026 (activity in wells)” value worked out at 5. For the same compound, the “036 (activity in wells)” value in assay [3] was “NEG”. For the same compound, the Forssman in assay [4] is reported as 17. In assay [5], the “035 (activity in wells)” value was “NEG”.
Consider `Cc1ccc(N)cc1C(=O)Nc1cc(S(=O)(=O)O)cc2cc(S(=O)(=O)O)cc(O)c12` [4-(5-Amino-o-toluamido)-5-hydroxy-2,7-naphthalenedisulfonic acid, disodium salt], for which the “026 (activity in wells)” value in assay [2] was determined as 2. In addition, the “036 (activity in wells)” value in assay [3] is on record as “NEG”. The “035 (activity in wells)” value in assay [5] is reported as “NEG”.
Regarding `Cc1ccc(C(=O)Nc2cc(S(=O)(=O)O)cc3cc(S(=O)(=O)O)cc(O)c23)cc1[N+](=O)[O-]` [4-Hydroxy-5-(3-nitro-p-toluamido)-2,7-naphthalenedisulfonic acid, disodium salt], the “026 (activity in wells)” value in assay [2] came out at 3. In assay [3], the “036 (activity in wells)” value is listed as “NEG”. The “035 (activity in wells)” value in assay [5] was “NEG”.
For the compound `Cc1cc(C(=O)Nc2cc(S(=O)(=O)O)cc3cc(S(=O)(=O)O)cc(O)c23)ccc1[N+](=O)[O-]` [4-Hydroxy-5-(4-nitro-3-toluamido)-2,7-naphthalenedisulfonic acid, disodium salt], in assay [1], the “% Reduction Complement” value is on record as -20%. Moreover, in assay [2], the “026 (activity in wells)” value is reported as 2. Moreover, the “036 (activity in wells)” value in assay [3] is “NEG”. The Forssman in assay [4] was 48. For the same compound, in assay [5], the “035 (activity in wells)” value is given as “NEG”.
Turning to `Cc1ccc([N+](=O)[O-])cc1C(=O)Nc1cc(S(=O)(=O)O)cc2cc(S(=O)(=O)O)cc(O)c12` [4-Hydroxy-5-(5-nitro-o-toluamido)-2,7-naphthalenedisulfonic acid, disodium salt], the “% Reduction Complement” value in assay [1] is recorded as -17%. Besides, the “026 (activity in wells)” value in assay [2] is on record as 2. In assay [3], the “036 (activity in wells)” value is “NEG”. The Forssman in assay [4] was found to be 10. The “035 (activity in wells)” value in assay [5] is given as “NEG”.
On to `Cc1ccc(NC(=O)Nc2cccc(C(=O)Nc3cc(S(=O)(=O)O)cc4cc(S(=O)(=O)O)cc(O)c34)c2)cc1[N+](=O)[O-]` [4-Hydroxy-5-m-[3-(3-nitro-p-tolyl)ureido]benzamido-2,7-naphthalenedisulfonic acid, disodium salt], for which the “% Reduction Complement” value in assay [1] is listed as “+46%”. The “026 (activity in wells)” value in assay [2] is “NEG”. Further, the “036 (activity in wells)” value in assay [3] is “NEG”. Also, in assay [4], the Forssman is reported as 15. In addition, the “035 (activity in wells)” value in assay [5] is on record as “NEG”.
As to `O=C(Nc1cccc(C(=O)Nc2cc(S(=O)(=O)O)cc3cc(S(=O)(=O)O)cc(O)c23)c1)Nc1cccc(C(F)(F)F)c1` [4-Hydroxy-5-m-[3-(α,α,α-trifluoro-m-tolyl)ureido]benzamido-2,7-naphthalenedisulfonic acid, disodium salt], in assay [1], the “% Reduction Complement” value was -6%. Besides, the “026 (activity in wells)” value in assay [2] was 1. The “036 (activity in wells)” value in assay [3] is on record as “NEG”. For the same compound, in assay [4], the Forssman was found to be 5. The “035 (activity in wells)” value in assay [5] is “NEG”.
As for `O=C(Nc1ccc(S(=O)(=O)F)cc1)Nc1cccc(C(=O)Nc2cc(S(=O)(=O)[O-])cc3cc(S(=O)(=O)[O-])cc(O)c23)c1.[Na+].[Na+]` [4-{m-{3-[p-(Fluorosulfonyl)phenyl]ureido}benzamido}-5-hydroxy-2,7-naphthalenedisulfonic acid, disodium salt], in assay [2], the “026 (activity in wells)” value worked out at 4. The “036 (activity in wells)” value in assay [3] is recorded as “NEG”. Further, the “035 (activity in wells)” value in assay [5] was “NEG”.
Turning to `O=C(Nc1cccc(C(=O)Nc2cc(S(=O)(=O)[O-])cc3cc(S(=O)(=O)[O-])cc(O)c23)c1)Nc1cccc(C(=O)Nc2cc(S(=O)(=O)[O-])cc3cc(S(=O)(=O)[O-])cc(O)c23)c1.[Na+].[Na+].[Na+].[Na+]` [5,5'-[Ureylenebis(m-phenylenecarbonylimino)]bis[4-hydroxy-2,7-naphthalenedisulfonic acid] tetrasodium salt], in assay [2], the “026 (activity in wells)” value is 6. In addition, the “036 (activity in wells)” value in assay [3] is listed as 2. The “035 (activity in wells)” value in assay [5] is given as 1.
